Test results reported in US20260265271A1, “Cereblon Ligands and Uses Thereof” (REGENTS OF THE UNIVERSITY OF MICHIGAN, priority 2022, published 2026).
Like-named read-outs stand apart in the source and are kept apart here.

Biological target: T1, IKZF2 (Homo sapiens, UniProt Q96SW2+Q9UKS7)
T1 construct: host or cells: Jurkat-IKZF2-HiBiT
Test: IKZF2 HiBiT degradation assay (Jurkat-IKZF2-HiBiT)
Format: cell-based
Conditions: for DC50: read-out: IKZF2 degradation DC50; for Dmax: read-out: IKZF2 degradation Dmax (%)
Procedure: Degradation of IKZF2 protein was determined by IKZF2 HiBiT assay using the Jurkat-IKZF2-HiBiT (Promega) cell line. […] Compounds were serially diluted in culture medium, and 20 μl of the diluted compounds were added to the appropriate wells of the plate. After the addition of compounds, the cells were incubated at 37° C. in an atmosphere of 5% CO2 for 24 hours. At the end of treatment, 40 ul of Nano-Glo HiBiT Lytic Detection Reagent (Promega) was added to each well, and then the plates were incubated at room temperature for 10-20 minutes. The luminescent signal was measured using a CALRIOstar plate reader (BMG Labtech). The readings were normalized to the DMSO-treated cells and the IC50 was calculated by nonlinear regression (four parameters sigmoid fitted with variable slope, least squares fit, and no constraint) analysis using the GraphPad Prism 8 software.

[1] = Jurkat-IKZF2-HiBiT cells, 24 hours

T1 sequence (Q9UKS7 whole entry): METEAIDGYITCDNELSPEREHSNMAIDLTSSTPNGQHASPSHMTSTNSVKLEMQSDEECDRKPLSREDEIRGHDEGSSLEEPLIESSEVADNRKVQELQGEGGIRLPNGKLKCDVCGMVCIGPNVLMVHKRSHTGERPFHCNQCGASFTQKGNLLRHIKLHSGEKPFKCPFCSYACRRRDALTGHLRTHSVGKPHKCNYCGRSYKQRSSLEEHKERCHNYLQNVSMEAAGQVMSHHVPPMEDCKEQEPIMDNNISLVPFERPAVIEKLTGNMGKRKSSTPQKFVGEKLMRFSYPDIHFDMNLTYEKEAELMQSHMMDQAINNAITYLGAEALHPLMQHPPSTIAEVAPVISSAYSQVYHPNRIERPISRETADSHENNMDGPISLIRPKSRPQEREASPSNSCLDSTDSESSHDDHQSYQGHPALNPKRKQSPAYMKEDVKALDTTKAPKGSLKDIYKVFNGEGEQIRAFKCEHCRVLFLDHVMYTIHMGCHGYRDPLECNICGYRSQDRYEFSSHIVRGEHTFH
T1 sequence (Q96SW2 whole entry): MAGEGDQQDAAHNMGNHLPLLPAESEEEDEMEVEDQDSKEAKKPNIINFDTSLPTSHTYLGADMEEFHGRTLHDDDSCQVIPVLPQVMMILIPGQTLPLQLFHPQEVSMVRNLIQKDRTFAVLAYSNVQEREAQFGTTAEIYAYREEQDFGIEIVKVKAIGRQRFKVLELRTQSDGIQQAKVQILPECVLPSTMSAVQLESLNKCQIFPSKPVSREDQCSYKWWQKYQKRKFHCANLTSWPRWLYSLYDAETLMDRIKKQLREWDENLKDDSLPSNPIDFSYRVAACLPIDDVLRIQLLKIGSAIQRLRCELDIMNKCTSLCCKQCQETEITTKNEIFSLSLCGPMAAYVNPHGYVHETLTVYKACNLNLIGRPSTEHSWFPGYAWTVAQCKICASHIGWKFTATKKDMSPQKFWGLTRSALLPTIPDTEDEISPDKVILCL
T1 sequence (Q16531 2-1140 partner limits assumed): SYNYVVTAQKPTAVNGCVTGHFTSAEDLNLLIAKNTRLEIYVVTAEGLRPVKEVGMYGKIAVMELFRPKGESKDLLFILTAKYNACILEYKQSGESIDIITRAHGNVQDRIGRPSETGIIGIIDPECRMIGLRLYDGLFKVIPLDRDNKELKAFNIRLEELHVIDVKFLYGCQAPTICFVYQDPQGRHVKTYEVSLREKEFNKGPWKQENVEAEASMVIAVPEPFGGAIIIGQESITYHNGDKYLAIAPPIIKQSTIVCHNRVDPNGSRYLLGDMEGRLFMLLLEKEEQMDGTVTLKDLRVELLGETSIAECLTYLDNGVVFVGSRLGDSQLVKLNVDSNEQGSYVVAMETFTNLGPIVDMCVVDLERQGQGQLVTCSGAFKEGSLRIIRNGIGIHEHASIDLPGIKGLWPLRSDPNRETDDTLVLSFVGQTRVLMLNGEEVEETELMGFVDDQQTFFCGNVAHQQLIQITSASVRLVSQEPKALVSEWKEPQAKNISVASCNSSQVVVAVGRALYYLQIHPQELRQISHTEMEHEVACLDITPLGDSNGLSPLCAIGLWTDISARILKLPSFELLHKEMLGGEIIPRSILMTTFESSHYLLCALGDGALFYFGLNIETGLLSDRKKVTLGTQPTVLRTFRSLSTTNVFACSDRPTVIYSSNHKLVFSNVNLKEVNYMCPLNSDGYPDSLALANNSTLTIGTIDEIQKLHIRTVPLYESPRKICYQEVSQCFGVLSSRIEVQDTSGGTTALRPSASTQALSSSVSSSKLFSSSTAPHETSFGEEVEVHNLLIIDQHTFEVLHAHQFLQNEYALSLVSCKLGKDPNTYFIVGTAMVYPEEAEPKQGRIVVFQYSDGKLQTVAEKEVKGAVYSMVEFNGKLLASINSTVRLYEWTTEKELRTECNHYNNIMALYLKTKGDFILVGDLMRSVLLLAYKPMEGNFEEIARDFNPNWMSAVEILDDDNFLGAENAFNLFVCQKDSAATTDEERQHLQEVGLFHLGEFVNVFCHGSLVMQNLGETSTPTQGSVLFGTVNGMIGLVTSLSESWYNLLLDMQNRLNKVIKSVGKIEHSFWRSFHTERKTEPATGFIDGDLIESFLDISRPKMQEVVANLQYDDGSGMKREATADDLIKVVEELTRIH

CC(=O)Nc1cccc(CN2CCN3c4cc5c(cc4OC[C@@H]3C2)C(=O)N([C@H]2CCC(=O)NC2=O)C5)c1 [Compound C26, N-(3-(((S)-9-((S)-2,6-dioxopiperidin-3-yl)-8-oxo-1,2,4a,5,9,10-hexahydro-8H-pyrazino[1′,2′:4,5][1,4]oxazino[2,3-f]isoindol-3(4H)-yl)methyl)phenyl)acetamide] gave a DC50 [1] of over 1 µM and a Dmax of 33%.

With Cn1cc(-c2cccc(CN3CCN4c5cc6c(cc5OC[C@@H]4C3)C(=O)N([C@H]3CCC(=O)NC3=O)C6)c2)cn1 [Compound C20, (S)-3-((S)-3-(3-(1-methyl-1H-pyrazol-4-yl)benzyl)-8-oxo-1,2,3,4,4a,5,8,10-octahydro-9H-pyrazino[1′,2′:4,5][1,4]oxazino[2,3-f]isoindol-9-yl)piperidine-2,6-dione] the DC50 [1] was over 10 µM and the Dmax was 27%.

O=C1CCC(N2Cc3cc(C4CCN(Cc5ccccc5)CC4)ccc3C2=O)C(=O)N1 (stereo not shown) [DKY709] showed a Dmax [1] of 67% and a DC50 [1] of 0.062 µM.

With CC1(C)CCC(CN2CCN3c4cc5c(cc4OC[C@@H]3C2)C(=O)N([C@H]2CCC(=O)NC2=O)C5)CC1 [Compound C34, (S)-3-((S)-3-((4,4-dimethylcyclohexyl)methyl)-8-oxo-1,2,3,4,4a,5,8,10-octahydro-9H-pyrazino[1′,2′:4,5][1,4]oxazino[2,3-f]isoindol-9-yl)piperidine-2,6-dione] the DC50 [1] was 0.414 µM and the Dmax was 68%.

O=C1CC[C@H](N2Cc3cc4c(cc3C2=O)OC[C@@H]2CN(CC3CC5CCC3C5)CCN42)C(=O)N1 (stereo partly drawn) [Compound C36, (3S)-3-((4aS)-3-(bicyclo[2.2.1]heptan-2-ylmethyl)-8-oxo-1,2,3,4,4a,5,8,10-octahydro-9H-pyrazino[1′,2′:4,5][1,4]oxazino[2,3-f]isoindol-9-yl)piperidine-2,6-dione] gave a DC50 [1] of 0.376 µM and a Dmax of 68%.

With O=C1CCC(N2Cc3cc4c(cc3C2=O)OC[C@H]2CN(CC3CCCC3)CCN42)C(=O)N1 (stereo partly drawn) [Compound C30, 3-((R)-3-(cyclopentylmethyl)-8-oxo-1,2,3,4,4a,5,8,10-octahydro-9H-pyrazino[1′,2′:4,5][1,4]oxazino[2,3-f]isoindol-9-yl)piperidine-2,6-dione] the DC50 [1] was over 1 µM and the Dmax was 0%.

For O=C1CCC(N2Cc3cc4c(cc3C2=O)OC[C@@H]2CN(CC3CCCCC3)CCN42)C(=O)N1 (stereo partly drawn) [Compound C2, 3-((S)-3-(cyclohexylmethyl)-8-oxo-1,2,3,4,4a,5,8,10-octahydro-9H-pyrazino[1′,2′:4,5][1,4]oxazino[2,3-f]isoindol-9-yl)piperidine-2,6-dione], the DC50 [1] was 1.4 µM and the Dmax was 56%.

Compound CCCN1CCN2c3cc4c(cc3OC[C@@H]2C1)C(=O)N(C1CCC(=O)NC1=O)C4 (stereo partly drawn) [Compound C3, 3-((S)-8-oxo-3-385.21propyl-1,2,3,4,4a,5,8,10-octahydro-9H-pyrazino[1′,2′:4,5][1,4]oxazino[2,3-f]isoindol-9-yl)piperidine-2,6-dione] has a DC50 [1] of over 2 µM and a Dmax of 58%.

O=C1CCC(N2Cc3cc4c(cc3C2=O)OC[C@@H]2CN(CC3CCN(c5ccccc5)CC3)CCN42)C(=O)N1 (stereo partly drawn) [Compound C7, 3-((S)-8-oxo-3-((1-phenylpiperidin-4-yl)methyl)-1,2,3,4,4a,5,8,10-octahydro-9H-pyrazino[1′,2′:4,5][1,4]oxazino[2,3-f]isoindol-9-yl)piperidine-2,6-dione] gave a DC50 [1] of 0.32 µM and a Dmax of 50%.

In the case of CC(C)(C)OC(=O)N1CCC2(CCC(CN3CCN4c5cc6c(cc5OC[C@@H]4C3)C(=O)N([C@H]3CCC(=O)NC3=O)C6)CC2)CC1 [Compound C38, tert-butyl 9-(((S)-9-((S)-2,6-dioxopiperidin-3-yl)-8-oxo-1,2,4a,5,9,10-hexahydro-8H-pyrazino[1′,2′:4,5][1,4]oxazino[2,3-f]isoindol-3(4H)-yl)methyl)-3-azaspiro[5.5]undecane-3-carboxylate], the DC50 [1] is reported as 0.424 µM and the Dmax is reported as 57%.

Work on O=C1CC[C@H](N2Cc3cc4c(cc3C2=O)OC[C@@H]2CN(Cc3cccc(NC(=O)c5ccccc5Cl)c3)CCN42)C(=O)N1 [Compound C25, 2-chloro-N-(3-(((S)-9-((S)-2,6-dioxopiperidin-3-yl)-8-oxo-1,2,4a,5,9,10-hexahydro-8H-pyrazino[1′,2′:4,5][1,4]oxazino[2,3-f]isoindol-3(4H)-yl)methyl)phenyl)benzamide] yielded a DC50 [1] of over 1 µM and a Dmax of 45%.

C[C@H]1CC[C@H](CN2CCN3c4cc5c(cc4OC[C@@H]3C2)C(=O)N([C@H]2CCC(=O)NC2=O)C5)CC1 [Compound C33, (S)-3-((S)-3-(((1r,4S)-4-methylcyclohexyl)methyl)-8-oxo-1,2,3,4,4a,5,8,10-octahydro-9H-pyrazino[1′,2′:4,5][1,4]oxazino[2,3-f]isoindol-9-yl)piperidine-2,6-dione] gave a DC50 [1] of 0.515 µM and a Dmax of 67%.

Work on COc1ccc(C(=O)N(C)c2cccc(CN3CCN4c5cc6c(cc5OC[C@@H]4C3)C(=O)N([C@H]3CCC(=O)NC3=O)C6)c2)cc1 [Compound C27, N-(3-(((S)-9-((S)-2,6-dioxopiperidin-3-yl)-8-oxo-1,2,4a,5,9,10-hexahydro-8H-pyrazino[1′,2′:4,5][1,4]oxazino[2,3-f]isoindol-3(4H)-yl)methyl)phenyl)-4-methoxy-N-methylbenzamide] yielded a DC50 [1] of over 10 µM and a Dmax of 21%.

With CC(=O)N1CCC(CCN2CCN3c4cc5c(cc4OC[C@@H]3C2)C(=O)N(C2CCC(=O)NC2=O)C5)CC1 (stereo partly drawn) [Compound C5, 3-((S)-3-(2-(1-acetylpiperidin-4-yl)ethyl)-8-oxo-1,2,3,4,4a,5,8,10-octahydro-9H-pyrazino[1′,2′:4,5][1,4]oxazino[2,3-f]isoindol-9-yl)piperidine-2,6-dione] the DC50 [1] was over 2 µM and the Dmax was 38%.

For COc1ccc(C(=O)Nc2cccc(CN3CCN4c5cc6c(cc5OC[C@H]4C3)C(=O)N(C3CCC(=O)NC3=O)C6)c2)cc1 (stereo partly drawn) [Compound C22, N-(3-(((4aR)-9-(2,6-dioxopiperidin-3-yl)-8-oxo-1,2,4a,5,9,10-hexahydro-8H-pyrazino[1′,2′:4,5][1,4]oxazino[2,3-f]isoindol-3(4H)-yl)methyl)phenyl)-4-methoxybenzamide], the DC50 [1] was over 1 µM and the Dmax was 44%.

With O=C1CCC(N2Cc3cc4c(cc3C2=O)OC[C@@H]2CN(CC3CCCC3)CCN42)C(=O)N1 (stereo partly drawn) [Compound C4, 3-((S)-3-(cyclopentylmethyl)-8-oxo-1,2,3,4,4a,5,8,10-octahydro-9H-pyrazino[1′,2′:4,5][1,4]oxazino[2,3-f]isoindol-9-yl)piperidine-2,6-dione] the DC50 [1] was 0.43 µM and the Dmax was 61%.

Compound O=C1CC[C@H](N2Cc3cc4c(cc3C2=O)OC[C@@H]2CN(CCC3CCCCC3)CCN42)C(=O)N1 [Compound C32, (S)-3-((S)-3-(2-cyclohexylethyl)-8-oxo-1,2,3,4,4a,5,8,10-octahydro-9H-pyrazino[1′,2′:4,5][1,4]oxazino[2,3-f]isoindol-9-yl)piperidine-2,6-dione] has a DC50 [1] of 0.324 µM and a Dmax of 71%.

Compound O=C1CC[C@H](N2Cc3cc4c(cc3C2=O)OC[C@@H]2CN(Cc3cccc(NC(=O)c5ccc(Cl)cc5)c3)CCN42)C(=O)N1 [Compound C24, 4-chloro-N-(3-(((S)-9-((S)-2,6-dioxopiperidin-3-yl)-8-oxo-1,2,4a,5,9,10-hexahydro-8H-pyrazino[1′,2′:4,5][1,4]oxazino[2,3-f]isoindol-3(4H)-yl)methyl)phenyl)benzamide] has a DC50 [1] of 0.025 µM and a Dmax of 77%.

O=C1CC[C@H](N2Cc3cc4c(cc3C2=O)OC[C@@H]2CN(CC3CC5CCC3CC5)CCN42)C(=O)N1 (stereo partly drawn) [Compound C37, (3S)-3-((4aS)-3-(bicyclo[2.2.2]octan-2-ylmethyl)-8-oxo-1,2,3,4,4a,5,8,10-octahydro-9H-pyrazino[1′,2′:4,5][1,4]oxazino[2,3-f]isoindol-9-yl)piperidine-2,6-dione] gave a DC50 [1] of 0.318 µM and a Dmax of 69%.

O=C1CC[C@H](N2Cc3cc4c(cc3C2=O)OC[C@@H]2CN(CC3CCC3)CCN42)C(=O)N1 [Compound C31, (S)-3-((S)-3-(cyclobutylmethyl)-8-oxo-1,2,3,4,4a,5,8,10-octahydro-9H-pyrazino[1′,2′:4,5][1,4]oxazino[2,3-f]isoindol-9-yl)piperidine-2,6-dione] showed a DC50 [1] of 1.26 µM and a Dmax of 58%.

Cc1ccc(C(=O)Nc2cccc(CN3CCN4c5cc6c(cc5OC[C@@H]4C3)C(=O)N([C@H]3CCC(=O)NC3=O)C6)c2)cc1 [Compound C23, N-(3-(((S)-9-((S)-2,6-dioxopiperidin-3-yl)-8-oxo-1,2,4a,5,9,10-hexahydro-8H-pyrazino[1′,2′:4,5][1,4]oxazino[2,3-f]isoindol-3(4H)-yl)methyl)phenyl)-4-methylbenzamide] showed a DC50 [1] of 0.018 µM and a Dmax of 77%.

COc1ccc(C(=O)Nc2cccc(CN3CCN4c5cc6c(cc5OC[C@@H]4C3)C(=O)N([C@H]3CCC(=O)NC3=O)C6)c2)cc1 [Compound C21, N-(3-(((S)-9-((S)-2,6-dioxopiperidin-3-yl)-8-oxo-1,2,4a,5,9,10-hexahydro-8H-pyrazino[1′,2′:4,5][1,4]oxazino[2,3-f]isoindol-3(4H)-yl)methyl)phenyl)-4-methoxybenzamide] was tested, and the DC50 [1] was 0.009 µM and the Dmax was 85%.

Work on CC(=O)N1CC2(CCC(CN3CCN4c5cc6c(cc5OC[C@@H]4C3)C(=O)N(C3CCC(=O)NC3=O)C6)CC2)C1 (stereo partly drawn) [Compound C6, 3-((S)-3-((2-acetyl-2-azaspiro[3.5]nonan-7-yl)methyl)-8-oxo-1,2,3,4,4a,5,8,10-octahydro-9H-pyrazino[1′,2′:4,5][1,4]oxazino[2,3-f]isoindol-9-yl)piperidine-2,6-dione] yielded a DC50 [1] of 0.33 µM and a Dmax of 62%.
